# According to patent US8993247B2, “Assay for vascular calcification” (King's College London, priority 2010, dated 2015):
# How the values were obtained:
# [1] = tested on: human smooth muscle cells; assay type: cell-based
# Experimental: A—VSMCs were incubated in the absence or presence of high Ca/P (2.5 mM Ca and 2.5 mM P) in 2% FBS/M199 media for 5 days and subjected to alizarin D staining Quantification shown graphically in B. Mean±SD, n=3. C—pictures of VSMCs were taken using light microscopy of alizarin-D stained VSMCs. 1.5—BSA control; 2.6−+5 mM GW4869; 3.7−+1.3% DSMO; 4.8−+1 uM Y-27632.
# [2] = tested on: human smooth muscle cells; experiment: Matrix vesicle release by VSMCs (western blot of CD63 and Fetuin A in MV lysates, CD63 densitometry); assay type: cell-based; conditions: matrix vesicle markers CD63 and Fetuin A in MV lysates, n=3
# Experimental: Panel B, quantification of matrix vesicle release by VSMCs was performed using densitometry analysis of CD63, presented in MV as defined by western-blot analysis (shown in A). Mean±SD, n=3.
SMILES,"calcification of VSMCs ([1]; high Ca/P (2.5 mM Ca and 2.5 mM P), media with 2% serum, 5 days, 5 mM GW4869, 1 uM Y-27632)",number of VSMCs in wells [1],matrix vesicles release by human smooth muscle cells [2],apoptosis of GW4869-treated VSMCs with high Ca and P compared with without (VSMCs)
C[C@@H](N)[C@H]1CC[C@H](C(=O)Nc2ccncc2)CC1 [Y 27632],had no effect,,,
Cl.Cl.O=C(/C=C/c1ccc(/C=C/C(=O)Nc2ccc(C3=NCCN3)cc2)cc1)Nc1ccc(C2=NCCN2)cc1 [GW4869],,dramatic reduction in the number of VSMCs,inhibition of matrix vesicles release,not increased
